Laboratory results taken from patent US9580390B2, “Indazole compounds as kinase inhibitors and method of treating cancer with same” (University Health Network, priority 2011, dated 2017).

How the values were obtained:
[1] = system: colon cancer cells (HCT116); assay: Cancer cell line growth inhibition (SRB assay); format: cell-based; details: Homo sapiens, HCT-116; read-out: Cancer Cell Line GI50 Range HCT116
[2] = system: ovarian cancer cells (PA-1); assay: Cancer cell line growth inhibition (SRB assay); format: cell-based; details: Homo sapiens, PA-1; read-out: Cancer Cell Line GI50 Range PA-1
human TTK = target: T1, human TTK (Homo sapiens, UniProt P33981); assay: TTK inhibition assay (indirect ELISA); format: biochemical; details: read-out: TTK IC50 Range
T1 construct: amino terminal GST fusion of full length human TTK; purchased Invitrogen
T1 sequence (P33981 1-857): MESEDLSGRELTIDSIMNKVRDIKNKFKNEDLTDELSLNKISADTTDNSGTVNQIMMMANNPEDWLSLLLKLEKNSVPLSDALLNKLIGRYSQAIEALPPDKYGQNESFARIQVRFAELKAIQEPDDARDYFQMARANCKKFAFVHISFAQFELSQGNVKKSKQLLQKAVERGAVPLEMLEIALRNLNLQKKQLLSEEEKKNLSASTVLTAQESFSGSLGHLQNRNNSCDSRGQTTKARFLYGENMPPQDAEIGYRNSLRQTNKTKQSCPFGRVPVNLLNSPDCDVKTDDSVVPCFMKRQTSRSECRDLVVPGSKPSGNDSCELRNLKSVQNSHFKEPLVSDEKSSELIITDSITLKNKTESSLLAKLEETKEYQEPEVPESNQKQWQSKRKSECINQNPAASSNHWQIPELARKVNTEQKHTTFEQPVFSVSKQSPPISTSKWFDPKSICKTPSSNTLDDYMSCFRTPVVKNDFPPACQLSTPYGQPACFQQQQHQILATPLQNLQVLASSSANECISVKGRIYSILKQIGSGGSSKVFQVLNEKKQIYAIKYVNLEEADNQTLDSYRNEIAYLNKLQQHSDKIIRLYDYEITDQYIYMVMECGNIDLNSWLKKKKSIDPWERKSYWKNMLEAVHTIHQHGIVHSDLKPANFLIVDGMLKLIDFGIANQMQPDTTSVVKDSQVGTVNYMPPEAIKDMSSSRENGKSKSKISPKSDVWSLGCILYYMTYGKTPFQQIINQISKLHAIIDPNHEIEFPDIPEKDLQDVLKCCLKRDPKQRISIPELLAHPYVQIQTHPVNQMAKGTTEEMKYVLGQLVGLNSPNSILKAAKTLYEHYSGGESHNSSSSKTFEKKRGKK

human PLK4 = target: T2, human PLK4 (Homo sapiens, UniProt O00444); assay: PLK4 inhibition assay (indirect ELISA); format: biochemical; details: 15 μM ATP
T2 construct: amino terminal GST fusion of residues 1-391 of human PLK4; made in house; host or cells: E. coli
T2 sequence (O00444 1-391): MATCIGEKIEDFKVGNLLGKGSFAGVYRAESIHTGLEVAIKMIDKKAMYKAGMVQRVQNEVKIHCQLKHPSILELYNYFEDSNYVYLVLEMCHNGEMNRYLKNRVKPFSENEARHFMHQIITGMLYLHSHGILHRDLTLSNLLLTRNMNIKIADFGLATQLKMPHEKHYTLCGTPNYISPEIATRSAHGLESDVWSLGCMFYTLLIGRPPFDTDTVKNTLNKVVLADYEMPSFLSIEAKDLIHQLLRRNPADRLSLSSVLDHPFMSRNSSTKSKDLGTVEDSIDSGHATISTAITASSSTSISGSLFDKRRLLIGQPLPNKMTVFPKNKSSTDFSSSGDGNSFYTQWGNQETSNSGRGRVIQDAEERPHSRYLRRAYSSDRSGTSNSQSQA
Protocol: Active PLK4 was purified from an E. coli expression system as an amino terminal GST fusion of residues 1-391 of human PLK4. The protein was purified from clarified cell extracts after induction at 15° C. overnight using glutathione sepharose, gel permeation chromatography, and ion exchange (Resource Q). The resulting protein was dephosphorylated with lambda phosphatase (NEB cat# P0753), and resolved from the phosphatase using gluthione sepharose. The dephosphorylated GST-PLK4 was stored in aliquots at −80° C. until use.
PLK4 activity was measured using an indirect ELISA detection system. Dephosphorylated GST-PLK4 (4 nM) was incubated in the presence of 15 μM ATP (Sigma cat# A7699), 50 mM HEPES-[…] pH 7.4, 10 mM MgCl2, 0.01% Brij 35 (Sigma cat# 03-3170), in a 96 well microtitre plate pre-coated with MBP (Millipore cat#30-011). The reaction was allowed to proceed for 30 minutes, followed by 5 washes of the plate with Wash Buffer (50 mM TRIS-Cl pH 7.4 and 0.2% Tween 20), and incubation for 30 minutes with a 1:3000 dilution of primary antibody (Cell Signaling cat# 9381). The plate was washed 5 times with Wash Buffer, incubated for 30 minutes in the presence of secondary antibody coupled to horse radish peroxidase (BioRad cat# 1721019, 1:3000 concentration), washed an additional 5 times with Wash Buffer, and incubated in the presence of TMB substrate (Sigma cat# T0440). The colourimetric reaction was allowed to continue for 5 minutes, followed by addition of stop solution (0.5 N sulphuric acid), and quantified by detection at 450 nm with either a monochromatic or filter based plate reader (Molecular Devices M5 or Beckman DTX880, respectively).
Compound inhibition was determined at either a fixed concentration (10 μM) or at a variable inhibitor concentration (typically 50 μM to 0.1 μM in a 10 point dose response titration). Compounds were pre-incubated in the presence of enzyme for 15 minutes prior to addition of ATP and the activity remaining quantified using the above described activity assay. The % Inhibition of a compound was determined using the following formula: % Inhibition=100×(1−(experimental value−background value)/(high activity control−background value)). The IC50 value was determined using a non-linear 4 point logistic curve fit (XLfit4, IDBS) with the formula: (A+(B/(1+((x/C)^D)))), where A=background value, B=range, C=inflection point, D=curve fit parameter.

Breast cancer cells = assay: Cancer cell line growth inhibition (SRB assay); format: cell-based; details: Homo sapiens; MDA-MB-468; read-out: Cancer Cell Line GI50 Range MDA-MB-468

Structure (SMILES)	GI50 [1] [nM]	GI50 [2] [nM]	IC50 (human TTK) [nM]	IC50 (human PLK4) [nM]	GI50 (Breast cancer cells) [nM]
CN1[C@@H]2CC[C@H]1C[C@@H](Oc1ccc(-c3n[nH]c4ccc(C(=O)NC(c5ccccc5Cl)C5CC5)cc34)cc1)C2 (stereo partly drawn) [Example A280, N-((2-chlorophenyl)(cyclopropyl)methyl)-3-(4-(((1R,3R,5S)-8-methyl-8-azabicyclo[3.2.1]octan-3-yl)oxy)phenyl)-H-indazole-5-carboxamide]	< 100	< 100	< 100	< 50	100 to 500
CN1[C@@H]2CC[C@H]1C[C@@H](Oc1ccc(-c3n[nH]c4ccc(C(=O)NC(c5ccccc5F)C5CC5)cc34)cc1)C2 (stereo partly drawn) [Example A282, N-(cyclopropyl(2-fluorophenyl)methyl)-3-(4-(((1R,3R,5S)-8-methyl-8-azabicyclo[3.2.1]octan-3-yl)oxy)phenyl)-1H-indazole-5-carboxamide]	< 100	< 100	< 100	< 50	100 to 500
CC(C)C(NC(=O)c1ccc2[nH]nc(-c3ccc(O[C@H]4C[C@H]5CC[C@@H](C4)N5C)cc3)c2c1)c1ccccc1 (stereo partly drawn) [Example A285, N-(2-methyl-1-phenylpropyl)-3-(4-(((1R,3R,5S)-8-methyl-8-azabicyclo[3.2.1]octan-3-yl)oxy)phenyl)-1H-indazole-5-carboxamide]	< 100	< 100	< 100	< 50	100 to 500
O=C(NC(c1ccccc1Cl)C1CCC1)c1ccc2[nH]nc(-c3ccc(N4CCN(C5COC5)CC4)cc3)c2c1 (stereo not shown) [Example A297, N-((2-chlorophenyl)(cyclobutyl)methyl)-3-(4-(4-(oxetan-3-yl)piperazin-1-yl)phenyl)-1H-indazole-5-carboxamide]	< 100	< 100	< 100	< 50	< 100
C=CCCC(NC(=O)c1ccc2[nH]nc(-c3ccc(N4CCN(C5COC5)CC4)cc3)c2c1)c1ccccc1Cl (stereo not shown) [Example A302, N-(1-(2-chlorophenyl)pent-4-en-1-yl)-3-(4-(4-(oxetan-3-yl)piperazin-1-yl)phenyl)-1H-indazole-5-carboxamide]	< 100	< 100	< 100	< 50	100 to 500
CCC(CC)C(NC(=O)c1ccc2[nH]nc(-c3ccc(O[C@H]4C[C@H]5CC[C@@H](C4)N5C=O)cc3)c2c1)c1ccccn1 (stereo partly drawn) [Example A342, N-(2-ethyl-1-(pyridin-2-yl)butyl)-3-(4-(((1R,3R,5S)-8-formyl-8-azabicyclo[3.2.1]octan-3-yl)oxy)phenyl)-1H-indazole-5-carboxamide]	< 100	< 100	< 100	< 50	< 100
CC(C)CC(NC(=O)c1ccc2[nH]nc(-c3ccc(OC4CCN(C5COC5)CC4)cc3)c2c1)c1ccccc1Cl (stereo not shown) [Example A355, N-(1-(2-chlorophenyl)-3-methylbutyl)-3-(4-((1-(oxetan-3-yl)piperidin-4-yl)oxy)phenyl)-1H-indazole-5-carboxamide]	100 to 500	100 to 500	< 100	< 50	100 to 500
CC(C)CC(NC(=O)c1ccc2[nH]nc(-c3ccc(OC4CN(C5COC5)C4)cc3)c2c1)c1ccccc1Cl (stereo not shown) [Example A357, N-(1-(2-chlorophenyl)-3-methylbutyl)-3-(4-((1-(oxetan-3-yl)azetidin-3-yl)oxy)phenyl)-1H-indazole-5-carboxamide]	100 to 500	100 to 500	< 100	< 50	100 to 500
CC(C)C[C@H](NC(=O)c1ccc2[nH]nc(-c3ccc(N4CCN(C5COC5)CC4)cc3)c2c1)c1ccccn1 [Example A359, (S)-N-(3-methyl-1-(pyridin-2-yl)butyl)-3-(4-(4-(oxetan-3-yl)piperazin-1-yl)phenyl)-1H-indazole-5-carboxamide]	< 100	< 100	< 100	< 50	< 100
CC(C)(C)C[C@H](NC(=O)c1ccc2[nH]nc(-c3ccc(N4CCN(C5COC5)CC4)cc3)c2c1)c1ccccc1 [Example A372, (S)-N-(3,3-dimethyl-1-phenylbutyl)-3-(4-(4-(oxctan-3-yl)piperazin-1-yl)phenyl)-1H-indazole-5-carboxamide]	< 100	< 100	< 100	< 50	100 to 500
CC(C)CC(NC(=O)c1ccc2[nH]nc(-c3ccc(OC4CC5CCC(C4)N5C4COC4)cc3)c2c1)c1ccccn1 [Example A373, N-(3-methyl-1-(pyridin-2-yl)butyl)-3-(4-(((1R,3R,5S)-8-(oxetan-3-yl)-8-azabicyclo[3.2.1]octan-3-yl)oxy)phenyl)-1H-indazole-5-carboxamide]	100 to 500	100 to 500	< 100	< 50	100 to 500
CN1C2COCC1CC(Oc1ccc(-c3n[nH]c4ccc(C(=O)NC(c5ccccc5)C5CC5)cc34)cc1)C2 [Example A387, N-(cyclopropyl(phenyl)methyl)-3-(4-(((1R,5S,7s)-9-methyl-3-oxa-9-azabicyclo[3.3.1]nonan-7-yl)oxy)phenyl)-1H-indazole-5-carboxamide]	< 100	< 100	< 100	< 50	> 500
CN1[C@@H]2CCC[C@H]1C[C@@H](Oc1ccc(-c3n[nH]c4ccc(C(=O)NC(c5ccccc5)C5CC5)cc34)cc1)C2 (stereo partly drawn) [Example A390, N-(cyclopropyl (phenyl)methyl)-3-(4-(((1R,3R,5S)-9-methyl-9-azabicyclo[3.3.1]nonan-3-yl)oxy)phenyl)-1 H-indazole-5-carboxamide]	< 100	< 100	< 100	< 50	100 to 500
O=C(N[C@H](CCO)c1ccccc1)c1ccc2[nH]nc(-c3ccc(N4[C@@H]5CC[C@H]4COC5)cc3)c2c1 [Example A423, 3-(4-((1R,5S)-3-oxa-8-azabicyclo[3.2.1]octan-8-yl)phenyl)-N-((R)-3-hydroxy-1-phenylpropyl)-1H-indazole-5-carboxamide]	< 100	< 100	< 100	< 50	< 100
